Experiments:
[1] = system: 786-0; assay: Cytotoxicity against human 786-0 cells assessed as cell growth at 10 uM after 48 hrs by MTT assay; assay type: functional; details: 786-0, 48 h, read-out: Activity
[2] = system: A498; assay: Cytotoxicity against human A498 cells assessed as cell growth at 10 uM after 48 hrs by MTT assay; assay type: functional; details: A498, 48 h, read-out: Activity
[3] = system: CAKI-1; assay: Cytotoxicity against human Caki1 cells assessed as cell growth at 10 uM after 48 hrs by MTT assay; assay type: functional; details: CAKI-1, 48 h, read-out: Activity
[4] = system: RXF 393; assay: Cytotoxicity against human […] cells assessed as cell growth at 10 uM after 48 hrs by MTT assay; assay type: functional; details: RXF 393, 48 h, read-out: Activity
[5] = system: SN12C; assay: Cytotoxicity against human SN12C cells assessed as cell growth at 10 uM after 48 hrs by MTT assay; assay type: functional; details: read-out: Activity
[6] = system: UO-31; assay: Cytotoxicity against human UO31 cells assessed as cell growth at 10 uM after 48 hrs by MTT assay; assay type: functional; details: UO-31, 48 h, read-out: Activity
[7] = system: HOP-62; assay: Cytotoxicity against human HOP62 cells assessed as cell growth at 10 uM after 48 hrs by MTT assay; assay type: functional; details: HOP-62, 48 h, read-out: Activity
[8] = system: NCI-H226; assay: Cytotoxicity against human NCI-H226 cells assessed as cell growth at 10 uM after 48 hrs by MTT assay; assay type: functional; details: NCI-H226, 48 h, read-out: Activity
[9] = system: NCI-H23; assay: Cytotoxicity against human NCI-H23 cells assessed as cell growth at 10 uM after 48 hrs by MTT assay; assay type: functional; details: NCI-H23, 48 h, read-out: Activity
[10] = system: HT-29; assay: Cytotoxicity against human HT-29 cells assessed as cell growth at 10 uM after 48 hrs by MTT assay; assay type: functional; details: HT-29, 48 h, read-out: Activity
[11] = Cytotoxicity against human Hs 578T cells assessed as cell growth at 10 uM after 48 hrs by MTT assay; assay type: functional; details: read-out: Activity
[12] = system: MCF7; assay: Cytotoxicity against human MCF7 cells assessed as cell growth at 10 uM after 48 hrs by MTT assay; assay type: functional; details: MCF7, 48 h, read-out: Activity
[13] = system: MDA-MB-231; assay: Cytotoxicity against human MDA-MB-231 cells assessed as cell growth at 10 uM after 48 hrs by MTT assay; assay type: functional; details: MDA-MB-231, 48 h, read-out: Activity
[14] = system: MDA-MB-435; assay: Cytotoxicity against human MDA-MB-435 cells assessed as cell growth at 10 uM after 48 hrs by MTT assay; assay type: functional; details: MDA-MB-435, 48 h, read-out: Activity
[15] = system: CCRF-CEM; assay: Cytotoxicity against human CCRF-CEM cells assessed as cell growth at 10 uM after 48 hrs by MTT assay; assay type: functional; details: read-out: Activity
[16] = system: HL-60(TB); assay: Cytotoxicity against human HL-60(TB) cells assessed as cell growth at 10 uM after 48 hrs by MTT assay; assay type: functional; details: HL-60, 48 h, read-out: Activity
[17] = system: K562; assay: Cytotoxicity against human K562 cells assessed as cell growth at 10 uM after 48 hrs by MTT assay; assay type: functional; details: K562, 48 h, read-out: Activity
[18] = system: MOLT-4; assay: Cytotoxicity against human MOLT4 cells assessed as cell growth at 10 uM after 48 hrs by MTT assay; assay type: functional; details: MOLT-4, 48 h, read-out: Activity
[19] = system: M14; assay: Cytotoxicity against human M14 cells assessed as cell growth at 10 uM after 48 hrs by MTT assay; assay type: functional; details: M14, 48 h, read-out: Activity
[20] = system: Malme-3M; assay: Cytotoxicity against human MALME-3M cells assessed as cell growth at 10 uM after 48 hrs by MTT assay; assay type: functional; details: read-out: Activity
[21] = system: SK-MEL-28; assay: Cytotoxicity against human SK-MEL-28 cells assessed as cell growth at 10 uM after 48 hrs by MTT assay; assay type: functional; details: SK-MEL-28, 48 h, read-out: Activity
[22] = system: SK-MEL-5; assay: Cytotoxicity against human SK-MEL-5 cells assessed as cell growth at 10 uM after 48 hrs by MTT assay; assay type: functional; details: SK-MEL-5, 48 h, read-out: Activity
[23] = system: UACC-257; assay: Cytotoxicity against human UACC257 cells assessed as cell growth at 10 uM after 48 hrs by MTT assay; assay type: functional; details: UACC-257, 48 h, read-out: Activity
[24] = system: PC-3; assay: Cytotoxicity against human PC3 cells assessed as cell growth at 10 uM after 48 hrs by MTT assay; assay type: functional; details: PC-3, 48 h, read-out: Activity
[25] = system: SNB-19; assay: Cytotoxicity against human SNB19 cells assessed as cell growth at 10 uM after 48 hrs by MTT assay; assay type: functional; details: SNB-19, 48 h, read-out: Activity
[26] = system: SNB-75; assay: Cytotoxicity against human SNB75 cells assessed as cell growth at 10 uM after 48 hrs by MTT assay; assay type: functional; details: SNB-75, 48 h, read-out: Activity
[27] = system: U-251; assay: Cytotoxicity against human U251 cells assessed as cell growth at 10 uM after 48 hrs by MTT assay; assay type: functional; details: U-251, 48 h, read-out: Activity
[28] = target: Glycogen synthase kinase-3 beta (Homo sapiens) (UniProt P49841); assay: Inhibition of human GSK3-beta assessed as residual enzyme activity at 0.3 uM after 40 mins by scintillation counting
Glycogen synthase kinase-3 beta (Homo sapiens), sequence (P49841 whole entry, looked up): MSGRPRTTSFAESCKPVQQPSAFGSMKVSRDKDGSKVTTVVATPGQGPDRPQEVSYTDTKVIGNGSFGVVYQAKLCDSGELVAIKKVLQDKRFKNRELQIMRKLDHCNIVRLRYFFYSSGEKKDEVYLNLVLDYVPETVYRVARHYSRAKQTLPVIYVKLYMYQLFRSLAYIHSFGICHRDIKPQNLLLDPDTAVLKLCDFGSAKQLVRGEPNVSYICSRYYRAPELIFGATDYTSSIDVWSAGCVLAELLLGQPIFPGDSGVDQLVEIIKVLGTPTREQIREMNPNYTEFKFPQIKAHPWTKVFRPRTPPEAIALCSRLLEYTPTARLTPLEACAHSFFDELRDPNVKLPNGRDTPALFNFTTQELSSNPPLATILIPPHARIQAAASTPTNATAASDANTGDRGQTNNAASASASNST

[29] = target: Cyclin-dependent kinase 2/cyclin A (Homo sapiens) (UniProt P24941+P20248+P78396); assay: Inhibition of human CDK2/Cyclin A assessed as residual enzyme activity at 3 uM after 40 mins by scintillation counting; assay type: protein-complex assay
[30] = target: Cyclin-dependent kinase 5/CDK5 activator 1 (Homo sapiens) (UniProt Q00535+Q15078); assay: Inhibition of human CDK5/p35 assessed as residual enzyme activity at 0.3 uM after 40 mins by scintillation counting; assay type: protein-complex assay
[31] = system: UACC-62; assay: Cytotoxicity against human UACC62 cells assessed as cell growth at 1 uM after 1 to 11 days by MTT assay; assay type: functional; details: read-out: Activity
[32] = system: OVCAR-4; assay: Cytotoxicity against human OVCAR4 cells assessed as cell growth at 1 uM after 1 to 11 days by MTT assay; assay type: functional; details: read-out: Activity
[33] = system: 786-0; assay: Cytotoxicity against human 786-0 cells assessed as cell growth at 1 uM after 1 to 11 days by MTT assay; assay type: functional; details: read-out: Activity
[34] = system: PC-3; assay: Cytotoxicity against human PC3 cells assessed as cell growth at 100 uM after 1 to 11 days by MTT assay; assay type: functional; details: read-out: Activity
[35] = system: HOP-92; assay: Cytotoxicity against human HOP92 cells after 1 to 11 days by MTT assay; assay type: functional
[36] = system: LOX IMVI; assay: Cytotoxicity against human LOXIMVI cells assessed as cell growth at 1 mM after 1 to 11 days by MTT assay; assay type: functional; details: read-out: Activity
[37] = Cytotoxicity against human Hs 578T cells after 1 to 11 days by MTT assay; assay type: functional
[38] = system: Malme-3M; assay: Cytotoxicity against human MALME-3M cells assessed as cell growth at 1 uM after 1 to 11 days by MTT assay; assay type: functional; details: read-out: Activity
[39] = read-out: LC50 (the source's name)

CN1C(=O)/C(=C2/C(=O)N(C)c3ncccc32)c2cccnc21
growth at 10 µM [1]: 94.5%
growth at 10 µM [2]: 120%
growth at 10 µM [3]: 95.5%
growth at 10 µM [4]: 101%
growth at 10 µM [5]: 105%
growth at 10 µM [6]: 88.3%
growth at 10 µM [7]: 91.1%
growth at 10 µM [8]: 102%
growth at 10 µM [9]: 103%
growth at 10 µM [10]: 99.5%
growth at 10 µM [11]: 115%
growth at 10 µM [12]: 114%
growth at 10 µM [13]: 117%
growth at 10 µM [14]: 101%
growth at 10 µM [15]: 89.4%
growth at 10 µM [16]: 183%
growth at 10 µM [17]: 137%
growth at 10 µM [18]: 127%
growth at 10 µM [19]: 92.7%
growth at 10 µM [20]: 91.5%
growth at 10 µM [21]: 106%
growth at 10 µM [22]: 102%
growth at 10 µM [23]: 102%
growth at 10 µM [24]: 100%
growth at 10 µM [25]: 99.4%
growth at 10 µM [26]: 75.5%
growth at 10 µM [27]: 95.8%
Activity [28]: 105%
Activity [29]: 109%
Activity [30]: 101%

O=C1Nc2ncccc2/C1=C1/Nc2ccccc2C1=O
growth at 10 µM [1]: 84.1%
growth at 10 µM [2]: 117%
growth at 10 µM [3]: 53.7%
growth at 10 µM [4]: 71.2%
growth at 10 µM [5]: 90.6%
growth at 10 µM [6]: 46.2%
growth at 10 µM [7]: 68.8%
growth at 10 µM [8]: 89%
growth at 10 µM [9]: 76%
growth at 10 µM [10]: 93.8%
growth at 10 µM [11]: 72.5%
growth at 10 µM [12]: 41%
growth at 10 µM [13]: 78.3%
growth at 10 µM [14]: 92.8%
growth at 10 µM [15]: 88.4%
growth at 10 µM [16]: 173%
growth at 10 µM [17]: 85.5%
growth at 10 µM [18]: 85.3%
growth at 10 µM [19]: 93.8%
growth at 10 µM [20]: 139%
growth at 10 µM [21]: 123%
growth at 10 µM [22]: 75.4%
growth at 10 µM [23]: 96.5%
growth at 10 µM [24]: 73%
growth at 10 µM [25]: 96.4%
growth at 10 µM [26]: 68.1%
growth at 10 µM [27]: 88.2%
Activity [28]: 93%
Activity [29]: 64%
Activity [30]: 82%

O=C1Nc2ncccc2/C1=C1/Nc2ccccc2/C1=N\O
growth at 10 µM [1]: 43.4%
growth at 10 µM [2]: -11.7%
growth at 10 µM [3]: 12.4%
growth at 10 µM [4]: 29.4%
growth at 10 µM [5]: 72.8%
growth at 10 µM [6]: 10.6%
growth at 1 µM [31]: 88%
growth at 1 µM [32]: 97%
growth at 1 µM [33]: 115%
growth at 100 µM [34]: 44%
GI50 [35]: 2.97 µM
TGI [35]: > 100 µM
CC50 [35, 39]: > 100 µM
growth at 1000 µM [36]: 30%
GI50 [37]: 2.39 µM
TGI [37]: > 100 µM
CC50 [37, 39]: > 100 µM
growth at 10 µM [7]: 45.9%
growth at 10 µM [8]: 78.6%
growth at 10 µM [9]: 89.7%
growth at 10 µM [10]: 102%
growth at 10 µM [11]: -9.72%
growth at 10 µM [12]: 87.8%
growth at 10 µM [13]: 78.6%
growth at 10 µM [14]: 72.6%
growth at 10 µM [15]: 84.8%
growth at 10 µM [16]: 125%
growth at 10 µM [17]: 53.2%
growth at 10 µM [18]: 40.8%
growth at 10 µM [19]: 56.4%
growth at 10 µM [20]: 91%
growth at 10 µM [21]: 75.3%
growth at 10 µM [22]: 72.3%
growth at 10 µM [23]: 92.6%
growth at 10 µM [24]: 67.7%
growth at 10 µM [25]: 96.5%
growth at 10 µM [26]: 31.2%
growth at 10 µM [27]: 87.3%
Activity [28]: 64%
Activity [29]: 76%
Activity [30]: 65%
growth at 1 µM [38]: 89%

Reference: ChEMBL document CHEMBL1154822, “Synthesis and antiproliferative activity of 7-azaindirubin-3'-oxime, a 7-aza isostere of the natural indirubin pharmacophore” (J Nat Prod, 2009)
